Read-outs that look alike come from different tables or passages of the source.
What was measured:
Assay type in all cases: cell-based
Details in all cases: Hepatitis B virus
[1] = test system: HBeAg; assay: HBeAg, multiplex assay, HBV-infected PHH
Description: (§1) Fresh primary human hepatocytes (PXB-PHH) harvested from humanized mice (uPA/SCID mice)—herein called PHH—were obtained from PhoenixBio Co., Ltd (Japan). Cells were seeded on a collagen I-coated plate at the following cell density: 35,000 cells/well (384-well), 70,000 cells/well (96-well), or, 400,000 cells/well (24-well) in modified hepatocyte clonal growth medium (dHCGM). dHCGM is a DMEM medium containing 100 U/ml Penicillin, 100 μg/ml Streptomycin, 20 mM Hopes, 44 mM NaHCO3, 15 μg/ml L-proline, 0.25 μg/ml insulin, 50 nM Dexamethazone, 5 ng/ml EGF, 0.1 mM Asc-2P, 2% DMSO and 10% FBS (Ishida et al., 2015). Cells were cultured at 37° C. incubator in a humidified atmosphere with 5% CO2. Culture medium was replaced 24 h post-plating and every 2 days until harvest.
(§2) Following 4 day of maturation with 1 μM MB-1, HLC were incubated with HBV (purified from CHB individuals) at multiplicity of infection (MOI) 10-40 without PEG for 24 hr; virus inoculum was removed the following day. […] Compound treatment in HLC and PHH was started at day 3 post infection. Compound (in powder) was dissolved in DMSO; the final concentration of DMSO added to cells is 1%. Fresh compound was replenished every 2 day until cells were harvested at day 10 (PHH), or day 14 (HLC). Compound effect on HBV and cellular toxicity was measured by multiplex assay (HBsAg, HBeAg, albumin), branched DNA (pgRNA), or digital PCR (cccDNA) and depicted as % of inhibition compared to DMSO control. Graphs were prepared using Spotfire software.
(§3) A custom, Luminex-based multiplex assay that simultaneously measured HBeAg, albumin, and HBsAg was developed by Radix BioSolutions (Georgetown, Tex.). This is a sandwich immunoassay; each capture antibody was coupled with xMAP™ Luminex magnetic beads. The dynamic ranges of analyte detection are as follows: HBeAg (1-316 ng/ml), albumin (3.1-10,000 ng/ml), and HBsAg (0.1-100 ng/ml) with coefficient variant (CV) […]. Samples were read on FlexMAP 3D (Luminex) and analyzed by Genedata software.

[2] = test system: HBsAg; assay: HBsAg, multiplex assay, HBV-infected PHH
Description: as §1, §2, §3

[3] = test system: pgRNA; assay: pgRNA, HBV-infected HepaRG
Description: Following 4 day of maturation with 1 μM MB-1, HLC were incubated with HBV (purified from CHB individuals) at multiplicity of infection (MOI) 10-40 without PEG for 24 hr; virus inoculum was removed the following day. HBV infection in PHH was performed at MOI 40+4% PEG. Compound treatment in HLC and PHH was started at day 3 post infection. Compound (in powder) was dissolved in DMSO; the final concentration of DMSO added to cells is 1%. Fresh compound was replenished every 2 day until cells were harvested at day 10 (PHH), or day 14 (HLC). Compound effect on HBV and cellular toxicity was measured by multiplex assay (HBsAg, HBeAg, albumin), branched DNA (pgRNA), or digital PCR (cccDNA) and depicted as % of inhibition compared to DMSO control. Graphs were prepared using Spotfire software.
Levels of pgRNA in infected cells (96-well plate) were measured using QuantiGene Singleplex 2.0 assay (Affymetrix), a hybridization-based assay that utilizes the xMAP™ Luminex magnetic beads and branched DNA (bDNA) signal amplification technology. The assay is performed in 96-well plate according to manufacturer's recommendation. Briefly, cells were lysed and lysates were incubated with HBV probe sets panel at 50-55° C. for 30 min then stored at −80° C. Signal amplification is achieved via sequential hybridization of PreAmplifier, Amplifier, and Label Probe. After adding Streptavidin phycoerythrin (SAPE) substrate, the signal is read using a FlexMap 3D (Luminex) instrument.
Most of HBV in vitro studies, including evaluation of compound antiviral activity, are performed in hepatoma cell lines (HepaRG or HepG2-NTCP) infected with cell culture-derived HBV (e.g. HepG2.2.15-derived virus, GT D). As evaluation of cccDNA destabilizers was performed with patient-derived HBV GT D in PHH (see FIGS. 3F and 4A-4B), the inventors asked whether compound potency would be similar when tested against patient-derived HBV isolates from other GTs, or cell culture-derived virus (HepG2.2.15). To address the first question, PHH (in 384-well plate) were infected with four clinical HBV isolates (GT A-D, at MOI 40). At day 3 pi, cells were treated with compound 7, or DMSO, every other day until harvested and analysed at day 10 pi. Several observations are noteworthy. First, clinical HBV isolates across GTs varied in their replication capacity in PHH; as noted earlier in HLC (see FIG. 21) and also by others (Mabit et al., 1996; Sozzi et al, 2016). […] For each isolate, the amounts of secreted viral antigens are in close agreement with their cccDNA levels; thus, GT A isolate had the highest amount of cccDNA (˜11,000 copies/well), followed by GT C, B, and D (see FIG. 5B). […] Next, the inventors evaluated whether antiviral activity of compound 7 could be affected by the source of virus inoculum. […]

Structure (SMILES): O=C(NC(CO)CO)c1c[nH]c2ncc(C3CC3)nc12 [compound 7]
- IC50 ([1]; 240 h, read-out: HBeAg IC50 (μM) Median, PHH, patient-derived HBV GT A, MOI 40, day 10 pi): 0.4 µM
- IC50 ([1]; 240 h, read-out: HBeAg IC50 (μM) Median, PHH, patient-derived HBV GT B, MOI 40, day 10 pi): 0.31 µM
- IC50 ([1]; 240 h, read-out: HBeAg IC50 (μM) Median, PHH, patient-derived HBV GT C, MOI 40, day 10 pi): 0.35 µM
- IC50 ([1]; 240 h, read-out: HBeAg IC50 (μM) Median, PHH, patient-derived HBV GT D, MOI 40, day 10 pi (Table 5)): 0.31 µM
- IC50 ([1]; read-out: HBeAg IC50 (μM) Median, PHH, HepG2.2.15-derived HBV GT D, MOI 40): 15.3 µM
- IC50 ([1]; read-out: HBeAg IC50 (μM) Median, PHH, HepG2.2.15-derived HBV GT D, MOI 125): 15.9 µM
- IC50 ([1]; read-out: HBeAg IC50 (μM) Median, PHH, patient-derived HBV (GT D)): 0.39 µM
- IC50 ([1]; read-out: HBeAg IC50 (μM) Median, PHH, patient-derived HBV GT D, MOI 40 (Table 6)): 0.32 µM
- IC50 ([1]; read-out: HBeAg IC50 (μM) Median, PHH, patient-derived HBV GT D, MOI 125): 0.57 µM
- IC50 ([1]; read-out: HBeAg IC50s, PHH, patient-derived HBV GT A-D, range stated in text for HBsAg & HBeAg): 0.24 to 0.45 µM
- IC50 ([2]; 240 h, read-out: HBsAg IC50 (μM) Median, PHH, patient-derived HBV GT A, MOI 40, day 10 pi): 0.33 µM
- IC50 ([2]; 240 h, read-out: HBsAg IC50 (μM) Median, PHH, patient-derived HBV GT B, MOI 40, day 10 pi): 0.34 µM
- IC50 ([2]; 240 h, read-out: HBsAg IC50 (μM) Median, PHH, patient-derived HBV GT C, MOI 40, day 10 pi): 0.3 µM
- IC50 ([2]; 240 h, read-out: HBsAg IC50 (μM) Median, PHH, patient-derived HBV GT D, MOI 40, day 10 pi (Table 5)): 0.3 µM
- IC50 ([2]; read-out: HBsAg IC50 (μM) Median, PHH, HepG2.2.15-derived HBV GT D, MOI 40): 9.98 µM
- IC50 ([2]; read-out: HBsAg IC50 (μM) Median, PHH, HepG2.2.15-derived HBV GT D, MOI 125): 8.98 µM
- IC50 ([2]; read-out: HBsAg IC50 (μM) Median, PHH, patient-derived HBV (GT D)): 0.45 µM
- IC50 ([2]; read-out: HBsAg IC50 (μM) Median, PHH, patient-derived HBV GT D, MOI 40 (Table 6)): 0.44 µM
- IC50 ([2]; read-out: HBsAg IC50 (μM) Median, PHH, patient-derived HBV GT D, MOI 125): 0.8 µM
- IC50 ([2]; read-out: HBsAg IC50s, PHH, patient-derived HBV GT A-D, range stated in text for HBsAg & HBeAg): 0.24 to 0.45 µM
- IC50 ([3]; HepG2.2.15-derived HBV GT D, MOI 40, read-out: pgRNA IC50 (μM) Median): 16.8 µM
- IC50 ([3]; HepG2.2.15-derived HBV GT D, MOI 125, read-out: pgRNA IC50 (μM) Median): 26.6 µM
- IC50 ([3]; patient-derived HBV GT D, MOI 40, read-out: pgRNA IC50 (μM) Median): 1.93 µM
- IC50 ([3]; patient-derived HBV GT D, MOI 125, read-out: pgRNA IC50 (μM) Median): 4.62 µM
